US11253532B2, “Composition for promoting increase in androgen” (Kobayashi Pharmaceutical Co., Ltd., priority 2016, dated 2022)

System: cells of testes collected from mice (primary culture)
Test: Test Example 1: testosterone secretion from primary culture of mouse testes cells, measured by EIA
Type: cell-based, mice (ddY strain)
Settings: 2-hour culture
Protocol: 2 mL of 50% ethanol was added to 4 mg/vial of compound K (trade name: Ginsenoside CK, 0150S, Extrasynthese S.A.) to dissolve compound K, and the obtained solution was suitably diluted with a DME/F-12 medium (Nacalai Tesque) containing 0.1% bovine serum albumin (BSA) (“0.1% BSA-DME/F-12”) to prepare a sample.
Testes were collected from mice (ddY strain, male, 7 to 8 weeks old), and subjected to primary culture. Specifically, testes were subjected to collagenase treatment (Worthington, Type 2, 0.05%, 37° C., 15 minutes) to disperse cells, and adjusted to 3×10^5 cells/0.5 mL in a DME/F-12 medium containing 10% fetal bovine serum (FBS). The cells were then seeded into a 24-well plate, and cultured overnight. After culture, the cells were washed with PBS(−) (Dulbecco's PBS (0.2 g/L of potassium chloride, 0.2 g/L of monopotassium phosphate, 8 g/L of sodium chloride, 1.15 g/L of anhydrous disodium phosphate, pH of 7.4, an isotonic solution, ion content: (mEq)Na^+ 148, K^+ 4, Cl^− 139)). The prepared sample was then added to the cells to give a volume of 1/10, together with a 0.1% BSA-DME/F-12 medium, and the concentration of compound K in the wells was adjusted to 1 μg/mL, 10 μg/mL, and 100 μg/mL.
A mixture solution of 50% ethanol and 0.1% BSA-DME/F-12 was prepared in place of the sample in the same manner as above, except that compound K was not added; this mixture was added to the cells to give a volume of 1/10 as above, thereby preparing a control (the concentration of compound K: 0 μg/mL).
After 2-hour culture, the medium was collected, and the testosterone levels in the mediums were measured by enzyme immunoassay (EIA).
Specifically, a goat anti-rabbit IgG antibody (2 μg/well) was added to a 96-well microplate (Nunc, Denmark), and the plate was coated at room temperature for 1 hour. After washing, a blocking agent (0.14M NaCl, 0.02% thimerosal, 1% BSA, 0.01M phosphate buffer, pH of 7.4) was added thereto to perform blocking at room temperature for 15 minutes. […] The absorbance at 490 nm was measured with a microplate reader to determine the testosterone secretion level.

Question: For `CC(C)=CCC[C@](C)(O[C@@H]1O[C@H](CO)[C@@H](O)[C@H](O)[C@H]1O)[C@H]1CC[C@]2(C)[C@@H]1[C@H](O)C[C@@H]1[C@@]3(C)CC[C@H](O)C(C)(C)[C@@H]3CC[C@]12C` [compound K, 20(S)-protopanaxadiol 20-O-β-d-glucopyranoside (M1)], which “testosterone level in a medium” value (compound K 1 μg/mL, not shown in FIG. 1) is on record?
Answer: The value was “increased testosterone level”.

Question: What about the “testosterone level in a medium” value (compound K 10 μg/mL, versus medium free from compound K (0 μg/mL), FIG. 1) of the same compound?
Answer: Its value is “higher”.

Question: What about the “testosterone level in a medium” value (compound K 100 μg/mL, versus medium free from compound K (0 μg/mL), FIG. 1) of the same compound?
Answer: The value was “higher”.
